One compound from PMC8483358 (2021) can be followed below.

Each structure is given as a SMILES string.

The test system of assay [1] is ALK wild-type (WT) hairpin oligonucleotide (DNA, hairpin) AAATTCAACCACCAGAACATTTTTATGTTCTGGTGGTTGAATTT
Kind of assay: SPR (Biacore X100), kinetic fit with mass transfer. The settings on record: 150 mM NaCl; HBS-EP: 10 mM HEPES, 3 mM EDTA, 0.005% P20, 0.1% DMSO, 25 °C.

In assay [2] the test system is F1174L-mutated ALK hairpin oligonucleotide (DNA, hairpin) AAATTAAACCACCAGAACATTTTTATGTTCTGGTGGTTTAATTT
Description: SPR (Biacore X100), kinetic fit with mass transfer. The settings on record: 150 mM NaCl; HBS-EP: 10 mM HEPES, 3 mM EDTA, 0.005% P20, 0.1% DMSO, 25 °C.

As to `CC(=O)Nc1cc(C(=O)Nc2cc(C(=O)Nc3cc(C(=O)Nc4cc(C(=O)NCCC(=O)Nc5cc(C(=O)Nc6cc(C(=O)Nc7cc(C(=O)NCCCC(=O)Nc8cn(C)c(C(=O)Nc9cn(C)c(C(=O)NCCC(=O)Nc%10cn(C)c(C(=O)Nc%11cn(C)c(C(=O)Nc%12cc(C(=O)Nc%13ccc%14cc(C(=O)NCCCN(C)C)[nH]c%14c%13)n(C)c%12)n%11)n%10)n9)n8)n(C)c7)n(C)c6)n(C)c5)n(C)c4)n(C)c3)n(C)c2)n(C)c1`, the KD in assay [1] is reported as 58.20 ± 1.62 × 10^-8 M; in assay [2] it was 6.37 ± 0.41 × 10^-8 M.
